# Assays:
# Type in all cases: in vivo, human
# [1] = test system: pregnant women suffering from nausea and vomiting of pregnancy; assay: Randomized controlled efficacy trial of Diclectin vs. placebo in pregnant women: plasma levels vs PUQE score; details: pregnant women treated with Diclectin for 14 days
# Procedure: A randomized controlled efficacy trial of Diclectin® vs. placebo in pregnant women was carried out as follows, with the results shown in FIG. 1.
# To assess the plasma levels of Doxylamine and PLP and the severity of nausea and vomiting of pregnancy symptoms in pregnant women treated with Diclectin®.
# The demographic and medical characteristics of the subjects are as described in Koren et al., Am J Obstet Gynecol 2010; 203(6):571.e1-7.
# The study design is as described in Koren et al., 2010, supra. Briefly, a randomized, double-blind, multicenter placebo controlled trial studying pregnant women suffering from nausea and vomiting of pregnancy, analyzed by intention to treat. Women received Diclectin (n=131) or placebo (n=125) for 14 days. Nausea and vomiting of pregnancy symptoms were evaluated daily using the pregnancy unique quantification of emesis scale (PUQE-24, Ebrahimi et al., J Obstet Gynaecol Can. 2009 September; 31(9):803-7).
# [2] = Randomized controlled bioavailability study in healthy women, three way cross over (Example 2)
# From the text: Three Way Cross Over Design.
# Bioavailability; Tmax, Cmax and AUC0-t between each treatment.
# [3] = Another study with different doses of R5P (5, 10 or 20 mg) in healthy women; details: 8 healthy women, controls not administered with R5P
# Procedure: In another study, different doses of R5P were tested: 5, 10 or 20 mg of R5P (i.e. equivalent to the formulations administered to Treatment group C above, with the exception that 5, 10 or 20 mg of R5P was used rather than 40 mg R5P; 8 healthy women for each dose), and the PLP levels were compared to those measured in control healthy women not administered with R5P (24 subjects, equivalent to Treatment group A above).
# [4] = co-administration of 40 mg of R5P
SMILES,relation of average plasma concentration to severity of NVP (PUQE score) [1],general improvement in the pharmacokinetic profile of PLP ([2]; administration of R5P),"PLP levels at 12h [2, 4]","increase in the plasma level of PLP (AUC 0-2 h) following administration of Pyridoxine [2, 4]","PLP concentration (using AUC) over the period 0-12 h ([2]; plasma, healthy women, fasted, compared with Diclectin (PA_DR), one-way ANOVA P>0.05)",effect on PLP levels relative to controls ([3]; 5 mg of R5P),effect on PLP levels relative to controls ([3]; 10 mg of R5P),effect on pharmacokinetics of PLP relative to controls ([3]; 20 mg of R5P)
"CN(C)CCOC(C)(c1ccccc1)c1ccccn1 (stereo not drawn) [Doxylamine, reference compound]",correlates with a decrease in the severity of the NVP,–,–,–,–,–,–,–
"Cc1ncc(COP(=O)(O)O)c(C=O)c1O [PLP, Pyridoxal 5-phosphate]",correlates with a decrease in the severity of the NVP,–,–,–,–,–,–,–
"Cc1cc2nc3c(=O)[nH]c(=O)nc-3n(C[C@H](O)[C@H](O)[C@H](O)COP(=O)(O)O)c2cc1C [R5P, riboflavin-5-phosphate]",–,less inter-subject variations and decreased time to reach steady-state PLP levels,does not significantly affect,faster increase in the plasma level of PLP,did not increase PLP levels significantly,no significant effect,no significant effect,some improvement in the pharmacokinetics of PLP

# From patent US9439920B2, “Composition for the management of nausea and vomiting” (Duchesnay Inc., priority 2013, dated 2016)
